{"source": "patent US10844091B2", "about": "(priority 2017, dated 2020)", "key": {"[1]": {"tested_on": "rat models with Alzheimer's disease", "test": "Conditioned passive avoidance reflex (CPAR) test, scopolamine-induced Alzheimer's disease model", "format": "in vivo", "settings": "for antiamnesic action (AA) in the CPAR test: Butler's formula, 0.1 mg/kg; for number of animals who reached the CPAR learning criterium: % of total trained animals, criterium at least 180 sec in light area", "protocol": "(§1) White random-bred adult male rats weighing 200-240 g were used. Groups of 7 animals per group were formed. 1st group—control, 2nd—pathology, 3rd—comparator drug, 4th-6th—neuropeptides.\n(§2) Scopolamine was administered i.p. to the animals in all groups except for the control at a 1 mg/kg dose daily, once a day for 27 days. From the 28th day on, the animals in groups 2 and 3 were administered the comparator drug and the claimed preparation respectively over the course of 10 days. The drugs were administered daily, once a day.\n(§3) The tetrapeptides were administered i.n at a 0.1 mg/kg dose. The animals in the pathology group received 0.9% sodium chloride solution i.n. and i.p. as a placebo.\n(§4) The OF and EE tests were conducted on the 1st day, PST—on the 2nd day, CPAR—on the 1st and 10th day post treatment with the preparations. […] The antiamnesic action (AA) in the CPAR test was calculated using Butler's formula [K. S. Radionova. […] After that, the animals were removed from the experiment by administering a narcotic, followed by decapitation. The brain was extracted and weighed, and the brain weight coefficient (BWC) was calculated. Immediately after extraction, the brain was frozen in liquid nitrogen and used in subsequent biochemical and histochemical studies. Glucose levels in whole arterial (common carotid artery) and venous (venous cerebral sinus) blood were determined by the glucose oxidase test, the difference in the arterial-venous glucose content was calculated (glucose consumption marker). The levels of average weight molecules—the toxic products of cell biodegradation damaged during the disease (nucleoside derivatives, peptoids, glucuronic acid salts, etc.) in the blood serum (AWM) were calculated [A. N. Kovalevsky. Notes on the screening method of determination average weight molecules/A. N. Kovalevsky, O. Ye. Nifantiev//Lab. Science. […] 35-39]."}, "rat models with AD": {"tested_on": "rat models with AD", "test": "Porsolt swim test (PST), scopolamine-induced Alzheimer's disease model", "format": "in vivo", "settings": "AD rats; donepezil 1 mg/kg i.p., tetrapeptide (LYS) 0.1 mg/kg i.n.", "protocol": "as §1, §2, §3, §4"}, "malonic aldehyde": {"tested_on": "malonic aldehyde", "test": "Malonic aldehyde content in the brain of rat models with Alzheimer's disease", "format": "in vivo", "settings": "tetrapeptide 0.1 mg/kg"}, "reduced glutathione": {"tested_on": "reduced glutathione", "test": "Reduced glutathione level in the brain of rat models with Alzheimer's disease", "format": "in vivo", "settings": "tetrapeptide 0.1 mg/kg", "protocol": "(§5) The drugs were administered daily, once a day.\n(§6) Standard biochemical methods were used to determine the content and activity of antioxidant defense enzymes and products of lipid peroxidation: malonic dialdehyde (MDA) [Modern Biochemistry Methods/[edited by V. N. Orekhovich]; M. Medicine, 1977, 392 pp]; superoxide dismutase (SOD) [O. P. Makarevich Activity of superoxide dismutase in blood in the acute period of various diseases/O. P. Makarevich, P. P. Golikov//Lab. Science, 1983, No 6, pp 24-27]; catalase [Methods for the Determination of Catalase Activity/M. A. Korolyuk, L. I. Ivanova, I. G. Mayorova, et al//Lab. Science, 1988, No 1, pp 16-19]; and reduced glutathione [T. A. Kochetov A Practical Guide to Enzymology. M. Nauka, 1980, 280 pp]."}, "superoxide dismutase": {"tested_on": "superoxide dismutase", "test": "Superoxide dismutase activity in the brain of rat models with Alzheimer's disease", "format": "in vivo", "settings": "tetrapeptide 0.1 mg/kg", "protocol": "as §5, §6"}, "catalase": {"tested_on": "catalase", "test": "Catalase activity in the brain of rat models with Alzheimer's disease", "format": "in vivo", "settings": "tetrapeptide 0.1 mg/kg; statistically significant", "protocol": "as §5, §6"}, "acetylcholine": {"tested_on": "acetylcholine", "test": "Acetylcholine content in the brain homogenate of rat models with Alzheimer's disease", "format": "in vivo", "settings": "compared to the control, pathology and donepezil groups, p<0.05", "protocol": "as §5\n(§7) 1966, t. […] M. I. Prokhorova, Leningrad, pub. House LSU, 1982.—pp. 256-258]."}, "ATP": {"tested_on": "ATP", "test": "Brain ATP level in rat models with Alzheimer's disease", "format": "in vivo", "settings": "tetrapeptide 0.1 mg/kg; as a trend", "protocol": "as §5, §7"}, "[2]": {"tested_on": "intact animals and animals with reserpine-induced depression", "test": "Open Field Test, intact animals and animals with reserpine-induced depression", "format": "in vivo, rat", "settings": "for Emotional reactions and concomitant vegetative state (total number of grooming acts, fecal boluses, and urinations) / Orientation and exploratory activity (number of explored openings and upright positions) / Sum of all results / Locomotor activity (number of squares): imipramine 15 mg/kg i.p., tetrapeptide (LYS) 0.02 mg/kg i.n.", "protocol": "The experiment was conducted on 16 white random-bred adult male rats weighing:\n180-220 g. The antidepressant activity of tetrapeptide (LYS), a neuroprotector, at a 0.02 mg/kg dose intranasally (i.n.) was evaluated. […] The experiment was conducted in two stages. […] 25-30 min. prior to the start of the experiment, the animals were administered their respective drugs. The animals in the control group were administered 0.9% NaCl solution i.p. and i.n. in the volume equal to the volume of the medications. After that, the animals of all groups were placed in the open field (OF) for 3 min., and their locomotor (number of crossed squares), orientation, and exploratory (number of upright positions and explored openings) activity as well as their emotional reactions (fecal boluses, urination, grooming) were evaluated. The indicators of depression in the animals (latent immobilization period, the number of such instances, and their total duration) were evaluated in the Popsolt swim test (PST) over 6 min. In the next 2 days, all the medications were administered at the same dose once a day; the last administration—30 min before the depressogenic sympatholytics of reserpine. Reserpine was administered on the 3rd day (2nd stage of the experiment) at a 4 mg/kg dose i.p. (as a suspension stabilized with Tween-80). Animals in all 3 groups were evaluated 6-7 hr. later in the OF and PST.\nTest results were statistically processed. When the data distribution was normal, the parametric Student's t-distribution test was applied, when it was absent, the non-parametric MannWhitney U-test was used. When processing the results in an alternative form (presence/absence of the indicator), Fisher's angular transformation φ was applied. Wilcoxon paired t-criterium test was used for the intra-group statistical evaluation of the changed in the animal test results prior and post simulated depression. The results were considered to be statistically significant when p<0.05."}, "[3]": {"settings": "R - reserpine-induced depression"}}, "note": "Marks after values point to notes of the source that are not given here. Non-standard residues stand in square brackets, D forms with d."}
{"substance": "acetyl-D-Lys-Lys-Arg-Arg-amide (Ac-[dK]KRR-NH2; SMILES CC(=O)N[C@H](CCCCN)C(=O)N[C@@H](CCCCN)C(=O)N[C@@H](CCCNC(=N)N)C(=O)N[C@@H](CCCNC(=N)N)C(N)=O) [tetrapeptide (LYS), peptide acetyl-X-ARG-ARG-amide, X = D- and L-amino acid residues of lysine]", "values": [{"measurement": "antiamnesic action (AA) in the CPAR test", "setting": "[1]; 10th day", "value": 81.5, "unit": "%"}, {"measurement": "increase of latent period compared to the pathology group", "setting": "[1]; 24 hrs. post formation of CPAR", "value": 79.5, "unit": "%"}, {"measurement": "Latent period of entry into the dark area of the CPAR device, In 24 hrs.", "setting": "[1]; In 24 hrs., scopolamine + donepezil 1 mg/kg or tetrapeptide (LYS) 0.1 mg/kg i.n.", "value": "126.14 ± 23.62", "unit": "s"}, {"measurement": "Latent period of entry into the dark area of the CPAR device, In 10 days", "setting": "[1]; In 10 days, scopolamine + donepezil 1 mg/kg or tetrapeptide (LYS) 0.1 mg/kg i.n.", "value": "89.71 ± 19.09^ sec."}, {"measurement": "Latent period of entry into the dark area of the CPAR device, Initial", "setting": "[1]; Initial, scopolamine + donepezil 1 mg/kg or tetrapeptide (LYS) 0.1 mg/kg i.n.", "value": "20.14 ± 3.73", "unit": "s"}, {"measurement": "number of animals who reached the CPAR learning criterium", "setting": "[1]; first day", "value": 42.9, "unit": "%"}, {"measurement": "antiamnesic action (AA) in the CPAR test", "setting": "[1]; first day", "value": 56.5, "unit": "%"}, {"measurement": "increase of latent period compared to the pathology group", "setting": "[1]; post 10 days, p<0.05", "value": 130.9, "unit": "%"}, {"measurement": "number of animals who reached the CPAR learning criterium", "setting": "[1]; tenth day", "value": 14.3, "unit": "%"}, {"measurement": "Latent period of immobilization", "setting": "rat models with AD", "value": "68.12 ± 6.15", "unit": "s"}, {"measurement": "Number of immobilization acts", "setting": "rat models with AD", "value": "6.21 ± 0.82"}, {"measurement": "Total duration of immobilization", "setting": "rat models with AD", "value": "111.06 ± 13.25", "unit": "s"}, {"measurement": "reduction of malonic aldehyde content in the brain relative to the pathology group", "setting": "malonic aldehyde", "value": 39.8, "unit": "%"}, {"measurement": "increase of the level of reduced glutathione in the brain", "setting": "reduced glutathione", "value": 36.6, "unit": "%"}, {"measurement": "increase of SOD activity compared to the pathology group", "setting": "superoxide dismutase", "value": 22, "unit": "%"}, {"measurement": "reduction of the elevated activity of catalase", "setting": "catalase", "value": 1.1, "unit": "times"}, {"measurement": "content of acetylcholinesterase in the brain (FIG. 11)", "setting": "acetylcholine", "value": "statistically significantly reduces"}, {"measurement": "brain ATP level", "setting": "ATP", "value": "increased ATP level"}, {"measurement": "Emotional reactions and concomitant vegetative state (total number of grooming acts, fecal boluses, and urinations)", "setting": "[2]; I - intact animals", "value": "1.8 ± 0.77^"}, {"measurement": "Orientation and exploratory activity (number of explored openings and upright positions)", "setting": "[2]; I - intact animals", "value": "5.8 ± 0.77"}, {"measurement": "Sum of all results", "setting": "[2]; I - intact animals", "value": "11.6 ± 2.49*^"}, {"measurement": "Locomotor activity (number of squares)", "setting": "[2]; I - intact animals, 3 min", "value": "4.0 ± 1.34*^"}, {"measurement": "Locomotor activity (number of squares)", "setting": "[2]; R - reserpine-induced depression (4 mg/kg i.p.)", "value": "3.4 ± 2.4"}, {"measurement": "Emotional reactions and concomitant vegetative state (total number of grooming acts, fecal boluses, and urinations)", "setting": "[2]; [3]", "value": "0.2 ± 0.2"}, {"measurement": "Orientation and exploratory activity (number of explored openings and upright positions)", "setting": "[2]; [3]", "value": "4.6 ± 2.4"}, {"measurement": "Sum of all results", "setting": "[2]; [3]", "value": "8.2 ± 4.98"}, {"measurement": "Emotional reactions and concomitant vegetative state, % change reserpine-induced depression vs. intact animals", "setting": "[2]; R vs I", "value": "(−88.9%) ®"}, {"measurement": "Locomotor activity, % change reserpine-induced depression vs. intact animals", "setting": "[2]; R vs I", "value": "(−15.0%)"}, {"measurement": "Orientation and exploratory activity, % change reserpine-induced depression vs. intact animals", "setting": "[2]; R vs I", "value": "(−20.69%)"}, {"measurement": "Sum of all results, % change reserpine-induced depression vs. intact animals", "setting": "[2]; R vs I", "value": "(−29.3%)"}, {"measurement": "decrease of emotional reaction level compared to intact animals", "setting": "[2]; reserpine-induced depression", "value": 9, "unit": "times"}, {"measurement": "reduction of locomotor activity (crossed squares) compared to intact animals", "setting": "[2]; reserpine-induced depression", "value": 15, "unit": "%"}, {"measurement": "reduction of orientation and exploratory activity compared to intact animals", "setting": "[2]; reserpine-induced depression", "value": 20.7, "unit": "%"}, {"measurement": "reduction of the sum of all types of activities compared to intact animals", "setting": "[2]; reserpine-induced depression", "value": 29.3, "unit": "%"}]}
